Laboratory results as given in patent US10213449B2, “Compositions and methods for treating medulloblastoma” (The Board of Trustees of the Leland Stanford Junior …, priority 2016, dated 2019).
Entries after “also recorded” stand apart in the source; their conditions may differ.

Experiments:
[1] = test system: Hh signaling in NIH 3T3 cells overexpressing GLI2 (HA-Gli2ΔN); test: RT-qPCR of Gli1 in NIH 3T3 cells expressing Gli2ΔN (epistasis study); type: cell-based, mouse; settings: 3T3 cells with forced expression of HA-Gli2ΔN
Excerpt: Epistasis studies were next performed to determine where in the hedgehog pathway CK2 acts. The effect of TBB was examined: (i) in NIH 3T3s stimulated with SAG, a SMO agonist, (ii) in Sufu−/− mouse embryonic fibroblasts (MEF), and (iii) in NIH 3T3 cells overexpressing GLI2 (FIG. 3d-3f).
Sufu^−/− MEFs (conditional deletion of exons 4-8) were kindly provided by Pao-Tien Chang (UCSF). SAG (S7779), GDC-0449 (Vismodegib, S1082) and CX-4945 (Silmitasertib, S2248) was purchased from SelleckChem.com. TBB was purchased from EMD (218697). Shh-N conditional medium was made using a HEK 293 cell line that stably secretes ShhN as previously described. Myc-GL12-DN (17649, pCS2-MT-GLI2-deltaN) plasmid was purchased from Addgene (Cambridge, Mass., USA). […]
NIH3T3s or SUFU−/− MEFs were plated in 6 well plates at 400,000 cells/well in 10% FBS media constituted of DMEM (Invitrogen11960-069) supplemented with 10% FBS (Hyclone Labs SH30070.02), pen/strep (Life Technologies 15140-122), sodium pyruvate (Invitrogen 11360-070) and glutamax (Invitrogen 35050-061). […] RNA was quantified on a nanodrop spectrophotometer (nanoddrop technologies ND-2000C). Transcript quantification was performed using a TaqMan RNA-to-Ct 1-Step Kit (Life technologies, 4392656) and the Applied Biosystems 7500 RT-PCR system as per the manufacturer's instructions. […]

[2] = test system: MB cell lines (MB55, MB21, MB53); test: Cell viability of MB cell lines (CellTiter-Glo); type: cell-based, mouse; settings: multiple MB cell lines derived from Ptch1+/− and Ptch1+/−; Trp53−/− mice
Method: Ptch+/−MB cell lines MB55 and MB21 were kindly gifted from Dr. Rosalind Segal (Dana Farber Cancer Institute, Harvard Medical School) and Ptch^+/−; p53^−/− MB53 cells were kindly gifted from Charles Rudin (Memorial Sloan-Kettering Cancer Center). All cell lines were validated for high Gli activity. Cell viability was assessed using CellTiter-Glo (G7573, Promega, WI, USA) according to the manufacturers instructions. Cells were plated at 10000 cells/well in 96-well plates, treated with drugs as indicated and data was collected on a TECAN Infinite 200 plate reader.

[3] = test system: Ptch+/−; Trp53−/− MB flank allografts; test: Flank allograft study, Ptch+/−; Trp53−/− MB; type: in vivo, mouse; settings: TBB 30 mg/kg IP BID; effect as early as 3 days after initiating treatment; vs vehicle control
Method: In vivo efficacy studies were performed in accordance with protocols approved by the Institutional Animal Care and Use Committee at Stanford University. SmoWT-MB and Smo[…]-MB cells isolated from either parental SmoWT or Smo[…] mouse Ptch^+/-; p53^-/- MB hind-flank allografts were kindly provided by Charles Rudin (Memorial Sloan-Kettering Cancer Center). Ptch+/-; Tpr53-/-, or, Ptch+/-; Tpr53-/-; Smo[…] MB cells were mixed 1:1 with matrigel and 10^7 cells were injected into both flanks of a Nu/Nu mouse. Once tumors reached 225-275 mm^3, mice were randomized to treatment vs. control groups. Treatment groups received 30 mg/kg IP BID of TBB (reconstituted in DMSO at 50 ug/uL), or 37.5 mg/kg IP BID of GDC-0449 (reconstituted in DMSO at 62.5 ug/uL). Control mice were treated with an equivalent volume of DMSO. Corn oil was used in all groups to a total volume of 180 uL/injection and all doses were given with a 28 g insulin syringe. Tumors were measured and mice were weighed daily. Once tumors reached 1.5 cm^2 or met institutional euthanasia criteria, mice were sacrificed and tumors were harvested. Growth curves were generated using GraphPad Prism and significance was measured by two-way ANOVA.

Brc1c(Br)c(Br)c2[nH]nnc2c1Br [TBB, 4,5,6,7-tetrabromo-2H-benzotriazole]
Gli1 mRNA levels [1]: inhibited; also recorded: dose dependent loss of Gli1 expression
cell viability [2]: decreased; also recorded: dose dependent tumoricidal effects
MB flank allograft growth [3]: significant inhibition; also recorded: decreased growth
